Reference: PubChem BioAssay AID330 (DTP/NCI, 2004)
Where “and” joins values, the source holds several entries; their conditions need not be identical. Equal entries are not always repeated. Inconclusive results and toxic doses are left out.

System: P388 leukemia ip, CD2F1 mice, survival T/C
Test: NCI In Vivo Anticancer Drug Screen. Data for tumor model P388 Leukemia (intraperitoneal) in CD2F1 (CDF1) mice
Conditions: endpoint: median survival time, higher = longer survival
How it was run: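 Mice carrying the transplanted tumor received test compound or vehicle. Survival was recorded in each group, and the value is the treated-group measurement divided by that of the vehicle-treated control group.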

[1] = dose: 50.0 mg/kg/injection, schedule: Q01DX005 (ip), vehicle: Klucel (hydroxypropylcellulose) (HPC)
[2] = dose: 100.0 mg/kg/injection, schedule: Q01DX005 (ip), vehicle: Klucel (hydroxypropylcellulose) (HPC)
[3] = dose: 200.0 mg/kg/injection, schedule: Q01DX005 (ip), vehicle: Klucel (hydroxypropylcellulose) (HPC)
[4] = dose: 60.0 mg/kg/injection, schedule: Q01DX005 (ip), vehicle: saline with Tween-80
[5] = dose: 50.0 mg/kg/injection, schedule: Q01DX005 (ip), vehicle: saline with Tween-80
[6] = dose: 100.0 mg/kg/injection, schedule: Q01DX005 (ip), vehicle: saline with Tween-80
[7] = dose: 200.0 mg/kg/injection, schedule: Q01DX005 (ip), vehicle: saline with Tween-80
[8] = dose: 50.0 mg/kg/injection, schedule: Q01DX009 (ip), vehicle: saline with Tween-80
[9] = dose: 100.0 mg/kg/injection, schedule: Q01DX009 (ip), vehicle: saline with Tween-80
[10] = dose: 200.0 mg/kg/injection, schedule: Q01DX009 (ip), vehicle: saline with Tween-80
[11] = dose: 6.25 mg/kg/injection, schedule: Q01DX009 (ip), vehicle: saline with Tween-80
[12] = dose: 50.0 mg/kg/injection, schedule: Q01DX009 (ip), vehicle: Klucel (hydroxypropylcellulose) (HPC)
[13] = dose: 100.0 mg/kg/injection, schedule: Q01DX009 (ip), vehicle: Klucel (hydroxypropylcellulose) (HPC)
[14] = dose: 200.0 mg/kg/injection, schedule: Q01DX009 (ip), vehicle: Klucel (hydroxypropylcellulose) (HPC)
[15] = dose: 12.5 mg/kg/injection, schedule: Q01DX009 (ip), vehicle: saline
[16] = dose: 25.0 mg/kg/injection, schedule: Q01DX009 (ip), vehicle: saline

Q: `Cl[C](Cl)(Cl)[Hg][c]1ccccc1` was tested. Which T/C (dose: 1.5 mg/kg/injection, schedule: Q01DX009 (ip), vehicle: saline with Tween-80) did it give?
A: 98 % of control

Q: What about the T/C (dose: 3.0 mg/kg/injection, schedule: Q01DX009 (ip), vehicle: saline with Tween-80) of the same compound?
A: 99 % of control

Q: What about the T/C (dose: 6.0 mg/kg/injection, schedule: Q01DX009 (ip), vehicle: saline with Tween-80) of the same compound?
A: 114 % of control

Q: What about the T/C (dose: 12.0 mg/kg/injection, schedule: Q01DX009 (ip), vehicle: saline with Tween-80) of the same compound?
A: 89 % of control

Q: Which results are given for `CC(=O)N/C(=C/c1ccccc1)C(=O)N/C(=C/c1ccccc1)C(=O)O`?
A: T/C [1]: 101 % of control; T/C [2]: 99 % of control; T/C [3]: 91 % of control

Q: `O=C(Nc1ccccc1C(=O)Nc1nccs1)c1ccccc1` was tested. Which T/C [4] did it give?
A: 86 % of control

Q: What about the T/C (dose: 120.0 mg/kg/injection, schedule: Q01DX005 (ip), vehicle: saline with Tween-80) of the same compound?
A: 93 % of control

Q: What about the T/C (dose: 240.0 mg/kg/injection, schedule: Q01DX005 (ip), vehicle: saline with Tween-80) of the same compound?
A: 98 % of control

Q: What does the source list for `CCOC(=O)c1cnc(NCCCNc2ncc(C(=O)OCC)c(=O)[nH]2)[nH]c1=O`?
A: T/C (dose: 6.25 mg/kg/injection, schedule: Q01DX005 (ip), vehicle: Klucel (hydroxypropylcellulose) (HPC)): 92 % of control; T/C (dose: 12.5 mg/kg/injection, schedule: Q01DX005 (ip), vehicle: Klucel (hydroxypropylcellulose) (HPC)): 101 % of control; T/C (dose: 25.0 mg/kg/injection, schedule: Q01DX005 (ip), vehicle: Klucel (hydroxypropylcellulose) (HPC)): 104 % of control; T/C [1]: 105 % of control; T/C [2]: 106 % of control; T/C [3]: 88 % of control

Q: Which T/C [5] does the source give for `NCC(=O)NCC(=O)NC(Cc1ccc(O)cc1)C(=O)O` (stereo not given) here?
A: 101 % of control

Q: And the T/C [6]?
A: 96 % of control

Q: And the T/C [7]?
A: 104 % of control

Q: `C[Si](C)(C)C1=CC[C@H]2C(=O)N(c3ccccc3)C(=O)[C@H]2C1=O` was tested. Which T/C [5] did it give?
A: 107 % of control

Q: What about the T/C [6] of the same compound?
A: 118 % of control

Q: And the T/C [7]?
A: 111 % of control

Q: Which T/C (dose: 25.0 mg/kg/injection, schedule: Q04DX002 (ip), vehicle: saline with Tween-80) does the source give for `CN=C(N)NN=C(c1ccc(I)cc1)c1ccc(I)cc1` here?
A: 104 % of control

Q: What about the T/C (dose: 50.0 mg/kg/injection, schedule: Q04DX002 (ip), vehicle: saline with Tween-80) of the same compound?
A: 106 % of control

Q: What about the T/C (dose: 100.0 mg/kg/injection, schedule: Q04DX002 (ip), vehicle: saline with Tween-80) of the same compound?
A: 104 % of control

Q: For `FC(F)Oc1ccccc1`, which T/C (dose: 50.0 mg/kg/injection, schedule: Q01DX009 (ip), vehicle: acetone) is on record?
A: 105 % of control

Q: And the T/C [8]?
A: 100 % of control and 101 % of control

Q: And the T/C (dose: 100.0 mg/kg/injection, schedule: Q01DX009 (ip), vehicle: acetone)?
A: 113 % of control

Q: And the T/C [9]?
A: 100 % of control and 110 % of control

Q: And the T/C (dose: 200.0 mg/kg/injection, schedule: Q01DX009 (ip), vehicle: acetone)?
A: 110 % of control

Q: What about the T/C [10] of the same compound?
A: 114 % of control

Q: For `O=C(Nc1ccc(Cl)c(Cl)c1)NC1CC1`, which T/C [8] is on record?
A: 119 % of control

Q: What about the T/C [9] of the same compound?
A: 102 % of control

Q: What about the T/C [10] of the same compound?
A: 93 % of control

Q: What does the source list for `Brc1ccc2c3c(ccc2c1)OCCOCCOCCOCCOCCOc1ccc2cc(Br)ccc2c1-3`?
A: T/C (dose: 100.0 mg/kg/injection, schedule: Q01DX001 (ip), vehicle: saline with Tween-80): 104 % of control; T/C (dose: 200.0 mg/kg/injection, schedule: Q01DX001 (ip), vehicle: saline with Tween-80): 107 % of control; T/C (dose: 400.0 mg/kg/injection, schedule: Q01DX001 (ip), vehicle: saline with Tween-80): 104 % of control

Q: For `CC1C=NNC1=O` (stereo not given), which T/C [11] is on record?
A: 112 % of control

Q: What about the T/C (dose: 125.0 mg/kg/injection, schedule: Q01DX009 (ip), vehicle: other) of the same compound?
A: 120 % of control

Q: And the T/C (dose: 125.0 mg/kg/injection, schedule: Q01DX009 (ip), vehicle: saline with Tween-80)?
A: 100 % of control

Q: And the T/C (dose: 250.0 mg/kg/injection, schedule: Q01DX009 (ip), vehicle: other)?
A: 115 % of control

Q: And the T/C (dose: 500.0 mg/kg/injection, schedule: Q01DX009 (ip), vehicle: other)?
A: 175 % of control

Q: What about the T/C (dose: 1000.0 mg/kg/injection, schedule: Q01DX009 (ip), vehicle: saline with Tween-80) of the same compound?
A: 172 % of control

Q: `COc1cc(-c2cnc3c(n2)c(=O)[nH]c(=O)n3C)ccc1O` was tested. Which T/C (dose: 100.0 mg/kg/injection, schedule: Q04DX002 (ip), vehicle: saline) did it give?
A: 104 % of control

Q: And the T/C (dose: 200.0 mg/kg/injection, schedule: Q04DX002 (ip), vehicle: saline)?
A: 103 % of control

Q: What about the T/C (dose: 400.0 mg/kg/injection, schedule: Q04DX002 (ip), vehicle: saline) of the same compound?
A: 95 % of control

Q: With `O=C1c2cc3c(cc2C(=O)c2[nH]c(=O)ccc21)CCCC3` as the compound, how does the T/C [5] read?
A: 100 % of control

Q: And the T/C [6]?
A: 88 % of control

Q: And the T/C [7]?
A: 101 % of control

Q: For `O=c1[nH]c2ccccc2c(Oc2ccccc2)c1I`, which T/C (dose: 60.0 mg/kg/injection, schedule: Q01DX005 (ip), vehicle: Klucel (hydroxypropylcellulose) (HPC)) is on record?
A: 89 % of control

Q: And the T/C (dose: 120.0 mg/kg/injection, schedule: Q01DX005 (ip), vehicle: Klucel (hydroxypropylcellulose) (HPC))?
A: 92 % of control

Q: And the T/C (dose: 240.0 mg/kg/injection, schedule: Q01DX005 (ip), vehicle: Klucel (hydroxypropylcellulose) (HPC))?
A: 101 % of control

Q: How did the T/C (dose: 15.0 mg/kg/injection, schedule: Q01DX005 (ip), vehicle: saline with Tween-80) turn out when `c1ccc2c(CCN3CCCCC3)c[nH]c2c1` was run?
A: 92 % of control

Q: What about the T/C (dose: 30.0 mg/kg/injection, schedule: Q01DX005 (ip), vehicle: saline with Tween-80) of the same compound?
A: 88 % of control

Q: And the T/C [4]?
A: 101 % of control and 87 % of control

Q: For `N#C/C(=C/c1ccc(Cl)cc1)c1ccc(Cl)cc1`, which T/C [12] is on record?
A: 102 % of control

Q: What about the T/C [13] of the same compound?
A: 110 % of control

Q: What about the T/C [14] of the same compound?
A: 102 % of control

Q: Which results are given for `COC(=O)c1ccc(SCC/C(CN2C(=O)c3ccccc3C2=O)=N\O)cc1`?
A: T/C [12]: 95 % of control; T/C [13]: 99 % of control; T/C [14]: 88 % of control

Q: What does the source list for `CC1(C)OI(O)c2ccccc21`?
A: T/C (dose: 100.0 mg/kg/injection, schedule: Q04DX002 (ip), vehicle: Klucel (hydroxypropylcellulose) (HPC)): 100 % of control; T/C (dose: 200.0 mg/kg/injection, schedule: Q04DX002 (ip), vehicle: Klucel (hydroxypropylcellulose) (HPC)): 100 % of control

Q: For `c1cc(C2N3CCCN2CC3)ccn1` (stereo not given), which T/C (dose: 3.12 mg/kg/injection, schedule: Q01DX009 (ip), vehicle: saline) is on record?
A: 104 % of control

Q: And the T/C [15]?
A: 103 % of control

Q: What about the T/C [16] of the same compound?
A: 110 % of control

Q: What does the source list for `CN(C)/N=N/c1ccn[nH]1`?
A: T/C (dose: 3.12 mg/kg/injection, schedule: Q01DX005 (ip), vehicle: saline with Tween-80): 121 % of control; T/C (dose: 3.12 mg/kg/injection, schedule: Q01DX009 (ip), vehicle: saline with Tween-80): 104 % of control; T/C (dose: 3.13 mg/kg/injection, schedule: Q01DX009 (ip), vehicle: saline): 97 % of control; T/C (dose: 6.25 mg/kg/injection, schedule: Q01DX005 (ip), vehicle: saline with Tween-80): 121 % of control; T/C [11]: 107 % of control; T/C (dose: 6.25 mg/kg/injection, schedule: Q01DX009 (ip), vehicle: saline): 87 % of control; T/C (dose: 12.5 mg/kg/injection, schedule: Q01DX005 (ip), vehicle: saline with Tween-80): 118 % of control; T/C [15]: 92 % of control; T/C (dose: 25.0 mg/kg/injection, schedule: Q01DX005 (ip), vehicle: saline with Tween-80): 121 % of control; T/C (dose: 25.0 mg/kg/injection, schedule: Q01DX009 (ip), vehicle: saline with Tween-80): 121 % of control; T/C [16]: 113 % of control; T/C [8]: 122 % of control; T/C (dose: 50.0 mg/kg/injection, schedule: Q01DX009 (ip), vehicle: saline): 101 % of control

Q: With `COc1ccc2c(c1)C(Br)CCCC2=O` (stereo not given) as the compound, how does the T/C (dose: 400.0 mg/kg/injection, schedule: Q01DX009 (ip), vehicle: distilled water + alcohol) read?
A: 106 % of control

Q: `CC1=NN(C(=O)c2cccnc2)C(=O)C1N=Nc1ccc(S(=O)(=O)Nc2nccs2)cc1` (stereo not given) was tested. Which T/C (dose: 100.0 mg/kg/injection, schedule: Q04DX003 (ip), vehicle: saline with Tween-80) did it give?
A: 101 % of control

Q: What about the T/C (dose: 200.0 mg/kg/injection, schedule: Q04DX003 (ip), vehicle: saline with Tween-80) of the same compound?
A: 99 % of control

Q: What about the T/C (dose: 400.0 mg/kg/injection, schedule: Q04DX003 (ip), vehicle: saline with Tween-80) of the same compound?
A: 95 % of control

Q: What does the source list for `CCCCCCCCCCCCCS`?
A: T/C [8]: 118 % of control; T/C (dose: 132.0 mg/kg/injection, schedule: Q04DX003 (ip), vehicle: saline with Tween-80): 104 % of control
